Key:
Assay in all cases: fitness (endpoint OD595 vs no drug) (fraction); higher = more growth
[1] = test system: B. subtilis 168
Outline: (§1)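 In 384-well plates at 37 °C, cultures began at OD595 0.01 in 30 µl, with 55 µl used for S. pneumoniae. OD595 readings every 30 min for 14 h were corrected by the first reading. Fitness divides the stationary-phase transition optical density by the robust mean of no-drug control wells. The result is capped at 1.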

[2] = test system: S. aureus Newman
Outline: as §1

[3] = test system: S. pneumoniae D39V
Outline: as §1
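Note: OD595 on entry to stationary phase over no-drug wells; at most 1.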

CC[C@H]1OC(=O)[C@H](C)[C@@H](O[C@H]2C[C@@](C)(OC)[C@@H](O)[C@H](C)O2)[C@H](C)[C@@H](O[C@@H]2O[C@H](C)C[C@H](N(C)C)[C@H]2O)[C@](C)(O)C[C@@H](C)CN(C)[C@H](C)[C@@H](O)[C@]1(C)O [Azithromycin] + O=C(O)[C@H]1/C(=C/CO)O[C@@H]2CC(=O)N21 [Clavulanic acid]
fitness, [1]
Conditions | partner 1.5 µg/mL | partner 3 µg/mL | partner 6 µg/mL
first compound 0.25 µg/mL | 0.939 | 0.911 | 0.793
first compound 0.5 µg/mL | 0.805 | 0.788 | 0.727

fitness, one replicate
Conditions | partner 0.03125 µg/mL | partner 0.0625 µg/mL | partner 0.125 µg/mL | partner 1.5 µg/mL | partner 3 µg/mL | partner 6 µg/mL
[1], first compound 2 µg/mL | – | – | – | 0.0793 | 0.054 | 0.0121
[2], first compound 0.125 µg/mL | 0.962 | 0.973 | 0.92 | – | – | –
[2], first compound 0.25 µg/mL | 0.902 | 0.998 | 0.893 | – | – | –
[2], first compound 0.5 µg/mL | 0.811 | 0.799 | 0.834 | – | – | –

O=C(O)[C@H]1/C(=C/CO)O[C@@H]2CC(=O)N21 [Clavulanic acid] + Cc1ncc([N+](=O)[O-])n1CCO [Metronidazole]
fitness
Conditions | partner 0.625 µg/mL | partner 1.073 µg/mL | partner 1.25 µg/mL | partner 2.145 µg/mL | partner 2.5 µg/mL | partner 4.29 µg/mL | partner 5 µg/mL
[1], first compound 1.5 µg/mL | 0.93 | – | 0.97 | – | 0.976 | – | –
[1], first compound 3 µg/mL | 0.909 | – | 0.89 | – | 0.886 | – | –
[1], first compound 6 µg/mL | 0.794 | – | 0.762 | – | 0.772 | – | –
[3], first compound 0.5 µg/mL | – | 0.946 | ≥ 1 | 0.946 | ≥ 1 | 0.858 | ≥ 1
[3], first compound 1 µg/mL | – | 0.931 | 0.957 | 0.926 | 0.971 | 0.89 | 0.959
[3], first compound 2 µg/mL | – | 0.839 | 0.801 | 0.779 | 0.828 | 0.829 | 0.805

fitness, [2], one replicate
Conditions | first compound 0.03125 µg/mL | first compound 0.0625 µg/mL | first compound 0.125 µg/mL
partner 0.625 µg/mL | 0.976 | 0.94 | 0.85
partner 1.25 µg/mL | 0.96 | ≥ 1 | 0.891
partner 2.5 µg/mL | 0.996 | ≥ 1 | 0.852

O=C(O)[C@H]1/C(=C/CO)O[C@@H]2CC(=O)N21 [Clavulanic acid] + CC1=C(C(=O)O)N2C(=O)[C@@H](NC(=O)[C@H](N)c3ccccc3)[C@H]2SC1 [Cephalexin]
one replicate
Conditions | fitness
[1], first compound 1.5 µg/mL, partner 1 µg/mL | 0.929
[1], first compound 3 µg/mL, partner 1 µg/mL | 0.848
[1], first compound 6 µg/mL, partner 1 µg/mL | 0.867
[2], first compound 0.03125 µg/mL, partner 0.5 µg/mL | ≥ 1
[2], first compound 0.03125 µg/mL, partner 1 µg/mL | ≥ 1
[2], first compound 0.03125 µg/mL, partner 2 µg/mL | ≥ 1
[2], first compound 0.0625 µg/mL, partner 0.5 µg/mL | 0.958
[2], first compound 0.0625 µg/mL, partner 1 µg/mL | 0.986
[2], first compound 0.0625 µg/mL, partner 2 µg/mL | ≥ 1
[2], first compound 0.125 µg/mL, partner 0.5 µg/mL | 0.897
[2], first compound 0.125 µg/mL, partner 1 µg/mL | 0.913
[2], first compound 0.125 µg/mL, partner 2 µg/mL | 0.919
[3], first compound 0.5 µg/mL, partner 0.125 µg/mL | 0.945
[3], first compound 0.5 µg/mL, partner 0.25 µg/mL | 0.957
[3], first compound 0.5 µg/mL, partner 0.5 µg/mL | 0.941
[3], first compound 1 µg/mL, partner 0.125 µg/mL | 0.881
[3], first compound 1 µg/mL, partner 0.25 µg/mL | 0.903
[3], first compound 1 µg/mL, partner 0.5 µg/mL | 0.944
[3], first compound 2 µg/mL, partner 0.125 µg/mL | 0.772
[3], first compound 2 µg/mL, partner 0.25 µg/mL | 0.789
[3], first compound 2 µg/mL, partner 0.5 µg/mL | 0.765

Conditions | fitness
[1], first compound 1.5 µg/mL, partner 0.125 µg/mL | 0.904
[1], first compound 1.5 µg/mL, partner 0.25 µg/mL | 0.927
[1], first compound 1.5 µg/mL, partner 0.5 µg/mL | 0.889
[1], first compound 3 µg/mL, partner 0.125 µg/mL | 0.878
[1], first compound 3 µg/mL, partner 0.25 µg/mL | 0.818
[1], first compound 3 µg/mL, partner 0.5 µg/mL | 0.793
[1], first compound 6 µg/mL, partner 0.125 µg/mL | 0.772
[1], first compound 6 µg/mL, partner 0.25 µg/mL | 0.76
[1], first compound 6 µg/mL, partner 0.5 µg/mL | 0.723
[3], first compound 0.5 µg/mL, partner 2 µg/mL | 0.0193
[3], first compound 0.5 µg/mL, partner 4 µg/mL | 0.0187
[3], first compound 1 µg/mL, partner 2 µg/mL | 0.171
[3], first compound 1 µg/mL, partner 4 µg/mL | 0.203
[3], first compound 2 µg/mL, partner 1 µg/mL | 0.104
[3], first compound 2 µg/mL, partner 2 µg/mL | 0.0309
[3], first compound 2 µg/mL, partner 4 µg/mL | 0.045

CC1=C(C(=O)O)N2C(=O)[C@@H](NC(=O)[C@H](N)c3ccccc3)[C@H]2SC1 [Cephalexin] + CO[C@@]12[C@H](COC(N)=O)C3=C(C(=O)C(C)=C(N)C3=O)N1C[C@@H]1N[C@@H]12 [Mitomycin C]
fitness, [3], one replicate
Conditions | first compound 0.125 µg/mL | first compound 0.25 µg/mL | first compound 0.5 µg/mL
partner 0.002 µg/mL | 0.806 | 0.757 | 0.732
partner 0.004 µg/mL | 0.761 | 0.723 | 0.686
partner 0.008 µg/mL | 0.607 | 0.615 | 0.608

fitness
Conditions | first compound 0.25 µg/mL | first compound 0.5 µg/mL | first compound 1 µg/mL | first compound 2 µg/mL | first compound 4 µg/mL
[2], partner 0.0156 µg/mL | 0.804 | 0.761 | 0.891 | – | –
[2], partner 0.0312 µg/mL | 0.732 | 0.724 | 0.705 | – | –
[2], partner 0.0625 µg/mL | 0.614 | 0.577 | 0.655 | – | –
[3], partner 0.001075 µg/mL | – | – | 0.662 | 0.188 | 0.0487
[3], partner 0.00215 µg/mL | – | – | 0.639 | 0.146 | 0.0215
[3], partner 0.0043 µg/mL | – | – | 0.604 | 0.173 | 0.05

O=C(O)[C@H]1/C(=C/CO)O[C@@H]2CC(=O)N21 [Clavulanic acid] + CO[C@@]12[C@H](COC(N)=O)C3=C(C(=O)C(C)=C(N)C3=O)N1C[C@@H]1N[C@@H]12 [Mitomycin C]
fitness, [3]
Conditions | partner 0.001075 µg/mL | partner 0.00215 µg/mL | partner 0.004 µg/mL | partner 0.0043 µg/mL | partner 0.008 µg/mL
first compound 0.5 µg/mL | 0.951 | 0.885 | 0.642 | 0.772 | 0.324
first compound 1 µg/mL | 0.896 | 0.873 | 0.586 | 0.766 | 0.369
first compound 2 µg/mL | 0.838 | 0.791 | 0.385 | 0.696 | 0.201

fitness, [2], one replicate
Conditions | first compound 0.03125 µg/mL | first compound 0.0625 µg/mL | first compound 0.125 µg/mL
partner 0.0156 µg/mL | 0.757 | 0.748 | 0.721
partner 0.0312 µg/mL | 0.549 | 0.568 | 0.601
partner 0.0625 µg/mL | 0.48 | 0.495 | 0.51

O=C(O)[C@H]1/C(=C/CO)O[C@@H]2CC(=O)N21 [Clavulanic acid] + C[C@@H]1O[C@@H]1P(=O)(O)O [Fosfomycin]
fitness
Conditions | first compound 0.5 µg/mL | first compound 1 µg/mL | first compound 1.5 µg/mL | first compound 2 µg/mL | first compound 3 µg/mL | first compound 6 µg/mL
[1], partner 1.562 µg/mL | – | – | 0.691 | – | 0.644 | 0.559
[1], partner 3.124 µg/mL | – | – | 0.564 | – | 0.529 | 0.453
[1], partner 6.248 µg/mL | – | – | 0.478 | – | 0.416 | 0.301
[3], partner 1.25 µg/mL | 0.953 | 0.905 | – | 0.821 | – | –
[3], partner 2.5 µg/mL | 0.933 | 0.872 | – | 0.802 | – | –

fitness, [2], one replicate
Conditions | first compound 0.03125 µg/mL | first compound 0.0625 µg/mL | first compound 0.125 µg/mL
partner 0.781 µg/mL | 0.96 | 0.885 | 0.841
partner 1.562 µg/mL | 0.679 | 0.626 | 0.598
partner 3.124 µg/mL | 0.396 | 0.382 | 0.349
